Results reported in patent US8618094B2, “Fused substituted aminopyrrolidine derivative” (Daiichi Sankyo Company, Limited, priority 2007, dated 2013).
Where a name gives a salt, the structure may show the parent alone.

With `Cc1c(N2C[C@]3(N)CC[C@]3(F)C2)c(F)cc2c(=O)c(C(=O)O)cn([C@@H]3C[C@@H]3F)c12` [Example 56, 7-{(1R,5S)-1-Amino-5-fluoro-3-azabicyclo[3.2.0]heptan-3-yl}-6-fluoro-1-[(1R,2S)-2-fluorocyclopropan-1-yl]-8-methyl-4-oxo-1,4-dihydroquinoline-3-carboxylic acid] the melting point was > 272 °C (dec.). `COc1c(N2C[C@@H]3CCC[C@]3(N)C2)c(F)cc2c(=O)c(C(=O)O)cn([C@@H]3C[C@@H]3F)c12` (relative stereo) [Example 12, 7-[(1R*,5S*)-1-Amino-3-azabicyclo[3.3.0]octan-3-yl]-6-fluoro-1-[(1R,2S)-2-fluorocyclopropyl]-8-methoxy-1,4-dihydro-4-oxoquinoline-3-carboxylic acid] gave a melting point of 171 to 174 °C. Compound `C[C@H]1C[C@@]2(N)CN(c3c(F)cc4c(=O)c(C(=O)O)cn5c4c3OC[C@@H]5C)C[C@@H]12` [Example 3, 10-{(1S,5R,6S)-1-Amino-6-methyl-3-azabicyclo[3.2.0]hept-3-yl}-9-fluoro-2,3-dihydro-3-(S)-methyl-7-oxo-7H-pyrido[1,2,3-de][1, 4]benzoxazine-6-carboxylic acid] has a melting point of 122 to 124 °C. `COc1c(N2C[C@H]3C(F)(F)CC[C@@]3(N)C2)c(F)cc2c(=O)c(C(=O)O)cn([C@@H]3C[C@@H]3F)c12` [Example 22, 7-[(1S,5R)-1-Amino-6,6-difluoro-3-azabicyclo[3,3,0]octan-3-yl]-6-fluoro-1-[(1R,2S)-2-fluorocyclopropyl]-1,4-dihydro-8-methoxy-4-oxoquinoline-3-carboxylic acid] gave a melting point of 239 to 241 °C. Work on `COc1c(N2C[C@H]3[C@H](F)CC[C@@]3(N)C2)c(F)cc2c(=O)c(C(=O)O)cn([C@@H]3C[C@@H]3F)c12` [Example 20, 7-{(1S,5R,6R)-1-Amino-6-fluoro-3-azabicyclo[3,3,0]octan-3-yl}-6-fluoro-1-[(1R,2S)-2-fluorocyclopropyl]-1,4-dihydro-8-methoxy-4-oxoquinoline-3-carboxylic acid] yielded a melting point of 179 to 181 °C. With `Cc1c(N2CC3(N)CCC4CC43C2)c(F)cc2c(=O)c(C(=O)O)cn([C@@H]3C[C@@H]3F)c12` (single isomer, unassigned) [Example 54] the melting point was 145 to 149 °C. In the case of `COc1c(N2C[C@]3(N)CC[C@]3(F)C2)c(F)cc2c(=O)c(C(=O)O)cn([C@@H]3C[C@@H]3F)c12` [Example 6, 7-[(1R,5S)-1-Amino-5-fluoro-3-azabicyclo[3.2.0]hept-3-yl]-6-fluoro-1-[(1R,2S)-2-fluorocyclopropyl]-1,4-dihydro-8-methoxy-4-oxoquinoline-3-carboxylic acid], the melting point is reported as 235 °C (dec.). `COc1c(N2CC3(Cl)CCC[C@@]3(N)C2)c(F)cc2c(=O)c(C(=O)O)cn([C@@H]3C[C@@H]3F)c12` (stereo in doubt) [Example 53, 7-[(1R,5R)-1-Amino-5-chloro-3-azabicyclo[3.3.0]octan-3-yl]-6-fluoro-1-[(1R,2S)-2-fluorocyclopropan-1-yl]-1,4-dihydro-8-methoxy-4-oxoquinoline-3-carboxylic acid] showed a melting point of 161 to 163 °C. `COc1c(N2C[C@H]3[C@@H](F)CC[C@@]3(N)C2)c(F)cc2c(=O)c(C(=O)O)cn([C@@H]3C[C@@H]3F)c12` [Example 21, 7-[(1S,5R,6S)-1-Amino-6-fluoro-3-azabicyclo[3,3,0]octan-3-yl]-6-fluoro-1-[(1R,2S)-2-fluorocyclopropyl]-1,4-dihydro-8-methoxy-4-oxoquinoline-3-carboxylic acid] showed a melting point of 117 to 119 °C. Compound `Cc1c(N2C[C@H]3CCOC[C@@]3(N)C2)c(F)cc2c(=O)c(C(=O)O)cn([C@@H]3C[C@@H]3F)c12` [Example 41, 7-[(1S,6R)-1-Amino-3-oxa-8-azabicyclo[4,3,0]nonan-8-yl]-6-fluoro-1-[(1R,2S)-2-fluorocyclopropyl]-1,4-dihydro-8-methyl-4-oxoquinoline-3-carboxylic acid] has a melting point of 158 to 160 °C. With `C[C@H]1COc2c(N3C[C@]4(N)CCC[C@]4(F)C3)c(F)cc3c(=O)c(C(=O)O)cn1c23` [Example 13, 10-[(1R,5S)-1-Amino-5-fluoro-3-azabicyclo[3.3.0]octan-3-yl]-9-fluoro-2,3-dihydro-3-(S)-methyl-7-oxo-7H-pyrido[1,2,3-de][1,4]benzoxazine-6-carboxylic acid] the melting point was 285 to 293 °C (dec.). `COc1c(N2C[C@H]3COC[C@@]3(N)C2)c(F)cc2c(=O)c(C(=O)O)cn([C@@H]3C[C@@H]3F)c12` [Example 59, 7-[(3aS)-3a-Aminotetrahydrofuro[3,4-c]pyrrol-5-yl]-6-fluoro-1-[(1R,2S)-2-fluorocyclopropyl]-1,4-dihydro-8-methoxy-4-oxoquinoline-3-carboxylic acid] gave a melting point of 201 to 202 °C. For `Cc1c(N2CC3(N)CCC4CC43C2)ccc2c(=O)c(C(=O)O)cn([C@@H]3C[C@@H]3F)c12` (single isomer, unassigned) [Example 55], the melting point was > 254 °C (dec.). With `C[C@H]1COc2c(N3C[C@@H]4CCOC[C@@]4(N)C3)c(F)cc3c(=O)c(C(=O)O)cn1c23` [Example 42, 10-[(1S,6S)-1-Amino-3-oxa-8-azabicyclo[4,3,0]nonan-8-yl]-9-fluoro-2,3-dihydro-3-methyl-(S)-7-oxo-7H-pyrido[1,2,3-de][1,4]benzoxazine-6-carboxylic acid] the melting point was > 300 °C. For `COc1c(N2C[C@H]3C(CF)C[C@@]3(N)C2)c(F)cc2c(=O)c(C(=O)O)cn([C@@H]3C[C@@H]3F)c12` (single isomer, unassigned) [Example 49], the melting point was 122 to 125 °C. `COc1c(N2CC3(C)CCC3(N)C2)c(F)cc2c(=O)c(C(=O)O)cn([C@@H]3C[C@@H]3F)c12` (stereo in doubt) [Example 7, 7-[(1R,5S)-1-Amino-5-methyl-3-azabicyclo[3.2.0]hept-3-yl]-6-fluoro-1-[(1R,2S)-2-fluorocyclopropyl]-1,4-dihydro-8-methoxy-4-oxoquinoline-3-carboxylic acid] showed a melting point of 123 to 125 °C. `COc1c(N2C[C@H]3C(CF)C[C@@]3(N)C2)c(F)cc2c(=O)c(C(=O)O)cn([C@@H]3C[C@@H]3F)c12` (single isomer, unassigned) [Example 50] showed a melting point of 193 to 195 °C. With `Cc1c(N2C[C@H]3C(CF)C[C@@]3(N)C2)c(F)cc2c(=O)c(C(=O)O)cn([C@@H]3C[C@@H]3F)c12` (single isomer, unassigned) [Example 51] the melting point was 130 to 133 °C. With `N#Cc1c(N2C[C@]3(N)CCC[C@]3(F)C2)c(F)cc2c(=O)c(C(=O)O)cn([C@@H]3C[C@@H]3F)c12` [Example 14, 7-[(1R,5S)-1-Amino-5-fluoro-3-azabicyclo[3.3.0]octan-3-yl]-8-cyano-6-fluoro-1-[(1R,2S)-2-fluorocyclopropan-1-yl]-1,4-dihydro-4-oxoquinoline-3-carboxylic acid] the melting point was 268 to 280 °C (dec.). `COc1c(N2CC3(N)CCC4CC43C2)c(F)cc2c(=O)c(C(=O)O)cn([C@@H]3C[C@@H]3F)c12` (stereo partly drawn) (as salt: methanesulfonate) [Example 57, 7-[6-amino-8-azatricyclo[4.3.0.0^1,3]nonan-8-yl]-6-fluoro-1-[(1R,2S)-2-fluorocyclopropan-1-yl]-8-methoxy-4-oxo-1,4-dihydroquinoline-3-carboxylic acid methanesulfonate] showed a melting point of 202 to 204 °C.
